Read-outs that look alike come from different tables or passages of the source.
Columns and labels:
[1] = target: T1, α-Glucosidase (from yeast, EC 3.2.1.20) (Saccharomyces cerevisiae, UniProt P53341); test: biochemical; format: biochemical; conditions: for IC50: means ± SD, n = 3, yeast enzyme, p-NPG substrate, 37 °C; for α-glucosidase inhibitory activity (in words): tested up to 100.00 μM
T1 construct: purchased Shanghai Yuanye Bio-Technology Co., Ltd. (Shanghai, China)
Procedure: (§1) ESI-HR-MS was recorded on an Orbitrap Exploris 120 quadrupole electrostatic field orbital well high-resolution mass spectrometer for UPLC-Q-Orbitrap HRMS (Waltham, MA, USA) equipped with a Hypersil GOLD C18 column (2.1 × 100 mm, 1.9 μm, ThermoFisher, Waltham, MA, USA). Optical rotations were measured on an MCP 500 polarimeter (Anton Paar, Graz, Austria). CD spectra were obtained using a Chirascan circular dichroism spectrometer (Applied PhotoPhysics, Leatherhead, Surrey, UK). UV spectra were measured with a UV-3600 Plus spectrophotometer (Shimadzu, Kyoto, Japan), and IR spectra were obtained using an IR Affinity-1S spectrophotometer (Shimadzu, Kyoto, Japan). Preparative and semipreparative HPLC were performed on a Shimadzu LC-16 system using a reverse-phase C18 column (20 × 250 mm, 5 μm, Shimadzu, Kyoto, Japan). NMR experiments were conducted on a Bruker AVANCE-600 instrument with tetramethylsilane (TMS) as an internal standard, operating at 600 MHz for ^1H NMR and 150 MHz for ^13C NMR (Ettlingen, Germany). Enzyme inhibition activity was measured using an Agilent Synergy H1 microplate reader (Agilent Technologies, Santa Clara, CA, USA). Macroporous resin AB-8 was obtained from the Chemical Plant of Nankai University (Tianjin, China). […] Analytical-grade reagents were procured from Da Mao Chemical Reagent Co., Ltd. (Tianjin, China), chromatographic-grade reagents from Honeywell Trade (Shanghai) Co., Ltd. (Shanghai, China), and distilled water from Watsons (Hong Kong, China).
Then, 400 μL of p-NPG solution (5 mM) was added to initiate the enzymatic reaction, which continued to incubate at 37 °C for 20 min. The reaction was terminated by placing the mixture in a −20 °C freezer for 10 min. Absorbance was measured at 405 nm using a microplate reader.

[2] = target: T2, α-amylase (from porcine pancreas) (Sus scrofa, UniProt P00690); test: α-amylase inhibition assay (DNS colorimetric, 540 nm); format: biochemical; conditions: for IC50: means ± SD, n = 3, porcine pancreas enzyme, DNS method, 37 °C; for α-amylase inhibitory activity (in words): tested up to 100.00 μM
T2 construct: purchased Shanghai Yuanye Bio-Technology Co., Ltd. (Shanghai, China); host or cells: porcine pancreas
T2 sequence (P00690 16-511): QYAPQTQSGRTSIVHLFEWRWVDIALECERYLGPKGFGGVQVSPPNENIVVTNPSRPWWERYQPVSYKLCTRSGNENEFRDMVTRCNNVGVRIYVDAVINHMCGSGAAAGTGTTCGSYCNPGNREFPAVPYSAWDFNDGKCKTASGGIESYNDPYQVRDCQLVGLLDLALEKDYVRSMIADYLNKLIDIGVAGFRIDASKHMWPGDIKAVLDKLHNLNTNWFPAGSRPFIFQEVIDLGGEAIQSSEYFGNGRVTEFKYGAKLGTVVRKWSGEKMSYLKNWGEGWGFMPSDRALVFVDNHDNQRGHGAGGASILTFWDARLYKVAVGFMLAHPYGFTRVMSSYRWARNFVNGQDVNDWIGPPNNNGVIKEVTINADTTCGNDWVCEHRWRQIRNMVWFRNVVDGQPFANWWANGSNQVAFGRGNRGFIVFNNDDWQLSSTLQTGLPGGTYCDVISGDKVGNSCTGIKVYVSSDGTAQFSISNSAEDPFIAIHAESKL
Procedure: as §1
Test sample solutions at various concentrations (5.00, 10.00, 20.00, 40.00, 60.00, 80.00, and 100.00 μM) were preincubated with α-amylase (2 U/mL) at 37 °C for 10 min. The reaction was terminated by adding 200 μL of DNS reagent and boiling the mixture at 100 °C for 5 min to inactivate the enzyme. After cooling to room temperature, 1 mL of distilled water was added for dilution, and absorbance was measured at 540 nm.

T1 sequence (P53341 whole entry): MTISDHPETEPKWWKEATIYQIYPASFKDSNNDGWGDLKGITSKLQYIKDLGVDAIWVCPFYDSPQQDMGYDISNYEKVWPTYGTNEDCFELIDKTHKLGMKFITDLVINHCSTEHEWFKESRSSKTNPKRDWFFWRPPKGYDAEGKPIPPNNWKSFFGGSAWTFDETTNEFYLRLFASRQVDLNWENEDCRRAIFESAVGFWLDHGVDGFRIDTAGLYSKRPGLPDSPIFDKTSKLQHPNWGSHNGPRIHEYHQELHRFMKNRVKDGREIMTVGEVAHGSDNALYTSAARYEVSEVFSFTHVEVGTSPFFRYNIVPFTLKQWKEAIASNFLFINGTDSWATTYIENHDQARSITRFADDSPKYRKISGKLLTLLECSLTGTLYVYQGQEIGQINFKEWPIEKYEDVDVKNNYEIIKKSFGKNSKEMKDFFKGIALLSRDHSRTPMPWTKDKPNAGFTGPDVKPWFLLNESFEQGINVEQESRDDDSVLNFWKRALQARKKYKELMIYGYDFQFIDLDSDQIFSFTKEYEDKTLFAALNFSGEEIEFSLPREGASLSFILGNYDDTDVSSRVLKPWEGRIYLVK

In the case of `COc1ccc(C2=CC(=O)OC2Cc2ccc(O)cc2)c(OC2OC(CO)C(O)C(O)C2O)c1` (single isomer, unassigned; (-)) [Compound 3, (−)-puerol B-2-O-glucopyranoside], the IC50 ([1]; read-out: IC50 α-Glucosidase) is reported as 72.9 ± 0.79 µM, the “α-glucosidase inhibitory activity (in words)” value [1] is reported as “significant inhibitory activity” and the IC50 ([2]; read-out: IC50 α-Amylase) is reported as 83.6 ± 1.15 µM. For the same compound, the “α-amylase inhibitory activity (in words)” value [2] was “significant inhibitory activity”.
With `COc1ccc(C2=CC(=O)OC2Cc2ccc(OC3OC(CO)C(O)C(O)C3O)cc2)c(OC2OC(CO)C(O)C(O)C2O)c1` (stereo not drawn) [Compound 1, 4R-pueroside B] the IC50 ([1]; read-out: IC50 α-Glucosidase) was 61.3 ± 1.15 µM, the “α-glucosidase inhibitory activity (in words)” value [1] was “significant inhibitory activity” and the IC50 ([2]; read-out: IC50 α-Amylase) was 81.7 ± 1.72 µM. For the same compound, the “α-amylase inhibitory activity (in words)” value [2] was “significant inhibitory activity”.
With `COc1ccc(C2=CC(=O)OC2Cc2ccc(OC3OC(CO)C(O)C(O)C3O)cc2)c(OC2OC(CO)C(O)C(O)C2O)c1` (stereo not drawn) [Compound 2, 4S-pueroside B] the IC50 ([1]; read-out: IC50 α-Glucosidase) was > 100 µM, the “α-glucosidase inhibitory activity (in words)” value [1] was “did not show any activity” and the IC50 ([2]; read-out: IC50 α-Amylase) was > 100 µM. For the same compound, the “α-amylase inhibitory activity (in words)” value [2] was “did not show any activity”.
With `COc1cc2c(cc1OC)[C@@H](Cc1ccc(Oc3cc(C[C@@H]4c5cc(OC)c(OC)cc5CCN4C)ccc3O)cc1)N(C)CC2` [Compound 4, dauricine] the IC50 ([1]; IC50 α-Glucosidase) was 44.2 ± 1.03 µM and the IC50 ([2]; read-out: IC50 α-Amylase) was 60.9 ± 1.68 µM.
For `COc1cc2c(cc1O)[C@@H](Cc1ccc(O)c(Oc3ccc(C[C@@H]4c5cc(OC)c(OC)cc5CCN4C)cc3)c1)N(C)CC2` [Compound 5, daurisoline], the IC50 ([1]; IC50 α-Glucosidase) was 45.2 ± 1.27 µM and the IC50 ([2]; read-out: IC50 α-Amylase) was 66.4 ± 2.31 µM.
`COc1ccc2c(c[n+](C)c3c4cc5c(cc4ccc23)OCO5)c1OC` [Compound 6, chelerythrine] gave an IC50 ([1]; read-out: IC50 α-Glucosidase) of 52.3 ± 1.59 µM and an IC50 ([2]; read-out: IC50 α-Amylase) of 71.4 ± 1.24 µM.
`COc1cc2c(cc1O)[C@@H]1Cc3ccc(O)c(OC)c3CN1CC2` [Compound 7, stepholidine] gave an IC50 ([1]; read-out: IC50 α-Glucosidase) of 58.8 ± 1.55 µM and an IC50 ([2]; read-out: IC50 α-Amylase) of 78.2 ± 1.98 µM.
Work on `COC1=CC(=O)[C@@]2([C@@H]1O)[C@@H](Cl)C[C@@]13C(OC)=C(OC)C(=O)C[C@@]21CCN3C` [Compound 8, acutumine] yielded an IC50 ([1]; read-out: IC50 α-Glucosidase) of 66.5 ± 2.03 µM and an IC50 ([2]; read-out: IC50 α-Amylase) of 80.7 ± 1.85 µM.
`COC1=C[C@@H]2[C@@H]3Cc4ccc(OC)c(O)c4[C@]2(CCN3C)CC1=O` [Compound 9, sinomenine] showed an IC50 ([1]; IC50 α-Glucosidase) of 57.6 ± 0.88 µM and an IC50 ([2]; IC50 α-Amylase) of 66.7 ± 1.45 µM.
In the case of `COc1cc(O)ccc1C(O)C(=O)Cc1ccc(O)cc1` (stereo not drawn) [Compound 10], the IC50 ([1]; read-out: IC50 α-Glucosidase) is reported as 43.6 ± 0.76 µM and the IC50 ([2]; read-out: IC50 α-Amylase) is reported as 63.6 ± 1.37 µM.
`CC1(C)C=Cc2cc3c(cc2O1)OC1C2(O)C=CC(=O)C=C2OCC31O` (stereo not drawn) [Compound 11, hydroxytuberosone] showed an IC50 ([1]; read-out: IC50 α-Glucosidase) of 32.2 ± 0.71 µM and an IC50 ([2]; read-out: IC50 α-Amylase) of 38.9 ± 1.08 µM.
`CC1(C)CC(=O)C2(C)CCC3(C)C(=CCC4C5(C)CCC(=O)C(C)(CO)C5CCC43C)C2C1` (stereo not drawn) [Compound 12, melilotigenin B] was tested, and the IC50 ([1]; read-out: IC50 α-Glucosidase) was 23.3 ± 0.38 µM and the IC50 ([2]; read-out: IC50 α-Amylase) was 30.9 ± 0.57 µM.
